Laboratory results from patent US10221190B2, “Biguanide compounds and use thereof” (IMMUNOMET THERAPEUTICS INC., priority 2013, dated 2019).
pIC50: −log10 of the molar value.

Tested on: HCT116 cell
Assay: Inhibitory activity against cancer cells (MTT cell viability), HCT116
Assay type: cell-based, human
Settings: Homo sapiens, HCT 116, 48 hr incubation
Experimental: The inhibitory activities of biguanide derivatives against cancer cells were evaluated in the cell line SK-MEL-28 derived from human Melanoma cell, Miapaka-2 cell line derived from human pancreatic cancer cell and HCT116 cell line derived from human colorectal cancer cell by measuring the concentration that inhibits 50% of the growth of the cell lines (the half maximal inhibitory concentration, IC50).
Firstly, SK-MEL-28 cells were grown to be density of 5,000 cells/well in RPMI-1640 media supplemented with 10% (v/v) bovine calf serum, on 96-well plates for 16 hr. To measure the IC50 of each compound, the cells were incubated for 48 hr with the 100 mM PBS stock compounds at an amount of 10 mM, 1 mM, 200 uM, 40 uM, 8 uM, 1.6 uM, 0.32 uM or 0.064 uM; 50 mM PBS and EtOH stock compounds at an amount of 1 mM, 200 uM, 40 uM, 8 uM, 1.6 uM, 0.32 uM and 0.064 uM; and 50 mM DMSO stock compounds at an amount of 100 uM, 25 uM, 6.25 uM, 1.56 uM, 0.39 uM, 0.10 uM and 0.02 uM, respectively. To test the viable cells after incubation with each compound, the cell cultures were incubated additionally for 2 hr in the presence of MTT. The produced formazan crystals were dissolved with dimethyl sulfoxide and then measured by detecting the absorbance at 560 nm.
After the 48 hr incubation, the viable cells were counted on the well plates treated with the compounds of the Examples relative to the count of the viable cells on the non-treated plates, and then was represented as the cell viability (%). By using the cell viability (%) result, the cell viability curve was plotted, and IC50 was calculated from the curve to evaluate the inhibitory activity against cancer cells.
The inhibitory activities of biguanide derivatives against cancer cells of Miapaca-2 cell and HCT116 cell were evaluated according to the substantially same method as described in SK-MEL-28 cell, except that DMEM media supplemented with 10% (v/v) bovine calf serum was used instead of RPMI-1640 media supplemented with 10% (v/v) bovine calf serum for SK-MEL-28 cell.

Row | pIC50 | SMILES
1 | < 4.00 | COc1ccc(NC(=N)NC(=N)N2CCCC2)cc1 [Example 2, N1-pyrrolidine-N5-(4-methoxy)phenyl biguanide]
2 | < 4.00 | COc1ccc(NC(=N)NC(=N)N2CCCC2)cc1Cl [Example 3, N1-pyrrolidine-N5-(3-chloro-4-methoxy)phenyl biguanide]
3 | < 4.00 | CN(C(=N)NC(=N)N1CCCC1)c1c(F)cccc1F [Example 4, N1-pyrrolidine-N5-(2,6-difluoro-N5-methyl)phenyl biguanide]
4 | < 4.00 | CN(C)c1ccc(NC(=N)NC(=N)N2CCCC2)cc1 [Example 5, N1-pyrrolidine-N5-(4-dimethylamino)phenyl biguanide]
5 | 5.16 | N=C(NC(=N)N1CCCC1)Nc1cccc(-c2ccccc2)c1 [Example 8, N1-pyrrolidine-N5-(N-biphenyl-3-yl) biguanide]
6 | 5.13 | N=C(NC(=N)N1CCCC1)Nc1ccc(-c2ccccc2)cc1 [Example 9, N1-pyrrolidine-N5-(N-biphenyl-4-yl) biguanide]
7 | 5.20 | N=C(NC(=N)N1CCCC1)Nc1cccc(-c2ccc(F)cc2)c1 [Example 10, N1-pyrrolidine-N5-(4′-fluorobiphenyl-3-yl) biguanide]
8 | 5.19 | N=C(NC(=N)N1CCCC1)Nc1ccc(-c2cccc(F)c2)cc1 [Example 11, N1-pyrrolidine-N5-(3′-fluorobiphenyl-4-yl) biguanide]
9 | 4.09 | N=C(NCCc1ccc(F)cc1)NC(=N)N1CCCC1 [Example 12, N1-pyrrolidine-N5-(4-fluoro)phenethyl biguanide]
10 | < 4.00 | CC(C)(NC(=N)NC(=N)N1CCCC1)c1ccccc1 [Example 13, N1-pyrrolidine-N5-(2-phenylpropane-2-yl) biguanide]
11 | 3.15 | N=C(NC(=N)N1CCCC1)NC1CCCc2ccccc21 (stereo not shown) [Example 15, N1-pyrrolidine-N5-(1,2,3,4-tetrahydronaphthalen-1-yl) biguanide]
12 | < 4.00 | N=C(NC(=N)N1CC[C@@H](O)C1)Nc1ccc(OC(F)(F)F)cc1 [Example 19, N1-(R)-3-hydroxy pyrrolidine-N5-(4-trifluoromethoxy)phenyl biguanide]
13 | < 4.00 | N=C(NC(=N)N1CCCC1)Nc1ccc(CCC(=O)N2CCCCC2)cc1 [Example 26, N—(N-(4-(3-oxo-3-(piperidin-1-yl)propyl)phenyl)carbamimidoyl)pyrrolidine-1-carboximidamide]
14 | < 4.00 | CCNC(=O)c1ccc(CNC(=N)NC(=N)N2CCCC2)cc1 [Example 27, N-ethyl-4-((3-(imino(pyrrolidin-1-yl)methyl)guanidino)methyl)benzamide]
15 | < 4.00 | N=C(NC(=N)N1CC[C@H](O)C1)Nc1ccc(SCC(=O)N2CCCCC2)cc1 [Example 29, (S)-3-hydroxy-N—(N-(4-(2-oxo-2-(piperidin-1-yl)ethylthio)phenyl)carbamimidoyl)pyrrolidine-1-carboximidamide]
16 | < 4.00 | CCNC(=O)c1cccc(CNC(=N)NC(=N)N2CCCC2)c1 [Example 30, N-ethyl-3-((3-(imino(pyrrolidin-1-yl)methyl)guanidino)methyl)benzamide]
17 | 4.03 | CN1CCN(C(=N)NC(=N)Nc2ccc(Br)cc2)CC1 [Example 31, N1-4-methyl piperazine-N5-(4-bromo)phenyl biguanide]
18 | 4.04 | CN1CCN(C(=N)NC(=N)Nc2cccc(Br)c2)CC1 [Example 32, N1-4-methyl piperazine-N5-(3-bromo)phenyl biguanide]
19 | 4.47 | CCN1CCN(C(=N)NC(=N)Nc2ccc(OC(F)(F)F)cc2)CC1 [Example 45, N1-4-ethyl piperazine-N5-(4-trifluoromethoxy)phenyl biguanide]
20 | < 4.00 | CC1CCCCN1C(=N)NC(=N)Nc1ccc(CCN)cc1 (stereo not shown) [Example 48]
21 | < 4.00 | CC1CC(C)CN(C(=N)NC(=N)Nc2ccc(CCN)cc2)C1 (stereo not shown) [Example 49]
22 | < 4.00 | CC1CCCN(C(=N)NC(=N)Nc2ccc(CCN)cc2)C1 (stereo not shown) [Example 50]
23 | 5.12 | N=C(NC(=N)N1CCC(F)(F)CC1)Nc1ccc(OC(F)(F)F)cc1 [Example 52, N1-4,4-difluoro piperidine-N5-(4-trifluoromethoxy)phenyl biguanide]
24 | < 4.00 | CN(C)C(=N)NC(=N)Nc1ccc(SCC(=O)N2CCCCC2)cc1 [Example 61, N1,N1-dimethyl-N5-4-(2-oxo-2-(piperidin-1-yl)ethylthio)phenyl biguanide]

More lines, now with the values behind:

Row | SMILES | pIC50
25 | N=C(NC(=N)N1CCC(O)CC1)Nc1ccc(Oc2ccccc2)cc1 [Example 21, N1-4-hydroxy piperidine-N5-(4-phenoxy)phenyl biguanide] | < 4.00
26 | N=C(NCc1ccc(C(=O)N2CCCCC2)cc1)NC(=N)N1CCCC1 [Example 25, N—(N-(4-(piperidine-1-carbonyl)benzyl)carbamimidoyl)pyrrolidine-1-carboximidamide] | < 4.00
27 | CN1CCN(C(=N)NC(=N)Nc2ccccc2Br)CC1 [Example 33, N1-4-methyl piperazine-N5-(2-bromo)phenyl biguanide] | < 4.00
28 | CN1CCN(C(=N)NC(=N)NCc2cccc(Br)c2)CC1 [Example 34, N1-4-methyl piperazine-N5-(3-bromo)benzyl biguanide] | < 4.00
29 | CN1CCN(C(=N)NC(=N)Nc2ccc(F)c(C(F)(F)F)c2)CC1 [Example 35, N1-4-methyl piperazine-N5-(4-fluoro-3-trifluoromethyl)phenyl biguanide] | 4.49
30 | CN1CCN(C(=N)NC(=N)Nc2ccc(OC(F)(F)F)c(Cl)c2)CC1 [Example 36, N1-4-methyl piperazine-N5-(3-chloro-4-trifluoromethoxy)phenyl biguanide] | 5.15
31 | CN1CCN(C(=N)NC(=N)Nc2ccc(OC(F)(F)F)c(F)c2)CC1 [Example 37, N1-4-methyl piperazine-N5-(3-fluoro-4-trifluoromethoxy)phenyl biguanide] | 4.49
32 | CN1CCN(C(=N)NC(=N)Nc2ccc(Cl)c(C(F)(F)F)c2)CC1 [Example 38, N1-4-methyl piperazine-N5-(4-chloro-3-trifluoromethyl)phenyl biguanide] | 4.93
33 | CN1CCN(C(=N)NC(=N)Nc2ccc(Cl)c(OC(F)(F)F)c2)CC1 [Example 39, N1-4-methyl piperazine-N5-(4-chloro-3-trifluoromethoxy)phenyl biguanide] | 5.12
34 | CN1CCN(C(=N)NC(=N)NCc2ccc(F)c(OC(F)(F)F)c2)CC1 [Example 41, N1-4-methyl piperazine-N5-(4-fluoro-3-trifluoromethoxy)benzyl biguanide] | < 4.00
35 | CN1CCN(C(=N)NC(=N)NCc2ccc(C(F)(F)F)c(F)c2)CC1 [Example 42, N1-4-methyl piperazine-N5-(3-fluoro-4-trifluoromethyl)benzyl biguanide] | < 4.00
36 | CN1CCN(C(=N)NC(=N)NCc2ccc(OC(F)(F)F)c(F)c2)CC1 [Example 43, N1-4-methyl piperazine-N5-(3-fluoro-4-trifluoromethoxy)benzyl biguanide] | < 4.00
37 | CN1CCN(C(=N)NC(=N)Nc2ccc(C(F)(F)F)c(F)c2)CC1 [Example 44, N1-4-methyl piperazine-N5-(3-fluoro-4-trifluoromethyl)phenyl biguanide] | 4.37
38 | C[C@@H]1CCC[C@H](C)N1C(=N)NC(=N)Nc1ccc(CCN)cc1 [Example 46] | < 4.00
39 | N=C(NC(=N)N1CCCC1)Nc1ccc(CCN)cc1 [Example 47] | < 4.00
40 | N=C(NC(=N)N1CCC(F)(F)C1)Nc1ccc(OC(F)(F)F)cc1 [Example 51, N1-3,3-difluoro pyrrolidine-N5-(4-trifluoromethoxy)phenyl biguanide] | 5.11
41 | N=C(N)NC(=N)Nc1ccc(Cl)cc1Cl [Example 54] | < 4.00
42 | N=C(N)NC(=N)Nc1ccc(F)cc1 [Example 55, N5-4-fluorophenyl biguanide] | < 4.00
43 | N=C(N)NC(=N)Nc1ccc(Cl)c(Cl)c1 [Example 56] | 4.46
44 | N=C(N)NC(=N)Nc1cc(C(F)(F)F)ccc1Cl [Example 57, N5-(2-chloro-5-trifluoromethyl)phenyl biguanide] | < 4.00
45 | N=C(N)NC(=N)Nc1ccc(F)c(Cl)c1 [Example 58, N5-(3-chloro-4-fluoro)phenyl biguanide] | < 4.00
46 | N=C(N)NC(=N)Nc1cccc(Cl)c1Cl [Example 59, N5-(2,3-dichloro)phenyl biguanide] | < 4.00
47 | N=C(N)NC(=N)Nc1ccc(SC(F)(F)F)cc1 [Example 60, N5-(4-trifluoromethylthio)phenyl biguanide] | 4.30
48 | N=C(NC(=N)Nc1cccnc1)Nc1ccc(C(F)(F)F)cc1 [Example 62, N1-3-pyridine-N5-(4-trifluoromethyl)phenyl biguanide] | < 4.00
49 | N=C(NC(=N)Nc1cccnc1)Nc1ccc(OC(F)(F)F)cc1 [Example 63, N1-3-pyridine-N5-(4-trifluoromethoxy)phenyl biguanide] | < 4.00
